Measured values taken from patent publication US8217085B2 (priority 2009, dated 2012).
Where two headings read alike, the source gives them in different places.

Tests used:
[1] = test system: drug sensitive Staphylococcus aureus; settings: Etest system; cited from earlier work
[2] = test system: ATCC strain 43300 Staphylococcus aureus; settings: oxacillin alone, 12 μg/ml, 30 μg/ml and 60 μg/ml
Experimental: Additional antibiotic was added every 24 hours.
USP<51> Antimicrobial Effectiveness protocol was used as the template experimental paradigm. […] All concentrations were plated out to the 10^−7 dilutionsto ascertain cfu/ml. […] Additional antibiotic was added at the initial concentration every 24 hours.
ATCC strain 43300 Staphylococcus aureus was streaked out for isolations. An isolated colony was chosen, streaked again and incubated. Isolate was chosen and then diluted to a McFarland standard of one. The estimated value was then taken to inoculate tubes containing growth media and 12, 30 or 60 μg/ml oxacillin with approximately 10^5 cfu/ml. These tubes were incubated and plated for counting cfu.
Material was calculated on a 10 ml volume. Sterile oxacillin was added to each experimental condition to a final concentration of 12, 30 or 60 μg/ml antibiotic.
All tubes were then inoculated with a dilution of the selected ATCC strain 43300 Staphylococcus aureus clone giving a final level of colony forming units of 3.3×10^5/ml (log=5.52). The tubes were incubated at 25° C. and mixed periodically. Antibiotic was re-inoculated every 24 hours at the initial concentration to maintain pressure on the organism. Plating was done at 24, 48, 72, and 120 hours. Each condition was plated by diluting 1 ml of growth material into 9 ml of MLB diluent broth. […] This mixture was serial diluted down to 10^−7 with 1 ml placed in triplicate in a sterile petri dish at each dilution point. 20 mls of TSA was added to each dilution, swirled and allowed to solidify. All dilutions were placed in a 35° C. incubator for 24 to 72 hours. Bacterial colonies on each plate were counted and the average taken then changed into log format. Any cfu/ml observed greater than 3.3×10^5 (log=5.5) were recorded as >3.3×10^5.

[3] = test system: ATCC strain 43300 Staphylococcus aureus; settings: methicillin alone, 12 μg/ml, 30 μg/ml and 60 μg/ml
Experimental: Additional antibiotic was added every 24 hours. The growth periods tested were 24 (FIG. 5), 48, 72, 96 and 120 hours.
USP<51> Antimicrobial Effectiveness protocol was used as the template experimental paradigm. […] All concentrations were plated out to the 10^−7 dilutions to ascertain cfu/ml. […] Additional antibiotic was added at the initial concentration every 24 hours.
ATCC strain 43300 Staphylococcus aureus was streaked out for isolations. An isolated colony was chosen, streaked again and incubated. Isolate was chosen and then diluted to a McFarland standard of one. The estimated value was then taken to inoculate tubes containing growth media and 12, 30 or 60 μg/ml methicillin with approximately 10^5 cfu/ml. These tubes were incubated and plated for counting cfu.
Material was calculated on a 10 ml volume. Sterile methicillin was added to each experimental condition to a final concentration of 12, 30 or 60 μg/ml antibiotic. Lactose Broth positive controls both with and without the 12 μg/ml, 30 μg/ml, 60 μg/ml antibiotic were inoculated with MRSA. […] Tubes were set up in singlet, but plated in triplicate, as described below.
All tubes were then inoculated with a dilution of the selected ATCC strain 43300 Staphylococcus aureus clone giving a final level of colony forming units of 1.49×10^5/ml (log=5.17). The tubes were incubated at 25° C. and mixed periodically. Antibiotic was re-inoculated every 24 hours at the initial concentration to maintain pressure on the organism. Plating was done at 24, 48, 72, and 120 hours. Each condition was plated by diluting 1 ml of growth material into 9 ml of MLB diluent broth. […] This mixture was serial diluted down to 10^−7 with 1 ml placed in triplicate in a sterile petri dish at each dilution point. 20 mls of TSA was added to each dilution, swirled and allowed to solidify. All dilutions were placed in a 35° C. incubator for 24 to 72 hours. Bacterial colonies on each plate were counted and the average taken then changed into log format.

SMILES | MIC [1] [µg/mL] | change in colony forming units from initial inoculum [2] | change in colony forming units from initial inoculum [3]
Cc1onc(-c2ccccc2)c1C(=O)N[C@@H]1C(=O)N2[C@@H]1SC(C)(C)[C@@H]2C(=O)O [oxacillin, reference compound] | ≤ 2 | no significant decrease in colony forming units | 
COc1cccc(OC)c1C(=O)N[C@@H]1C(=O)N2[C@@H]1SC(C)(C)[C@@H]2C(=O)O [methicillin, reference compound] |  |  | no significant decrease in colony forming units
